Laboratory results published in US10905658B2, “Methods and compositions for detecting hematopoietic and lymphoid tissue cancer cells” (WAYNE STATE UNIVERSITY, priority 2016, dated 2021).

How the values were obtained:
B-NHL cell lines [1] = test: Treatment of B-NHL cell lines with alkoxyamines (cell killing); assay type: cell-based; details: for killing of a B-NHL cell line (cytotoxicity): comparison of alkoxyamines AA3 through AA7, FIG. 17
APE-1 = test: AP endonuclease activity assay; assay type: biochemical, mammalian; details: for protection of AP sites against cleavage by APE-1: alkoxyamine reaction at pH 5
Description: The cleavage activity of AP endonuclease APE-1 (1 unit, New England Biolabs) was assayed using a 6-FAM labeled oligomer (4 pmol) containing a single uracil. The uracil was excised using UDG to create an AP site and the AP site was labeled with an alkoxyamine as described above. The APE-1 reaction was per-formed in the reaction buffer (50 mM potassium acetate, 20 mM Tris-acetate, 10 mM magnesium acetate, 1 mM DTT, pH 7.9) at 37° C. for 1 h. DNA products were stabilized by incubation with NaBH4 and analyzed by gel electrophoresis as described above.

B-NHL cell lines [2] = test: Treatment of B-NHL cell lines with alkoxyamines (cell killing); assay type: cell-based; details: for effect on cell growth / cell death: B-NHL cells; for cell death: even at 10 mM
Description: A 24 hr treatment with 1 mM AA3 killed greater than 40% cells in each culture and at 10 mM concentration, >70% cells were killed (FIG. 11). […] Therefore, AA3 cytocidal to B-NHL cells while MX and ARP are only cytostatic.

HeLa cells = test: Killing of HeLa cells by MMS combined with MX or AA3 (trypan blue exclusion); assay type: cell-based, human
Description: Methyl methanesulfonate (MMS, Sigma-Aldrich) was diluted in phosphate buffered saline. MX or AA3 was dissolved in sterile water, and the pH was adjusted to 7 using NaOH solution. The solutions of all the chemicals were freshly prepared for each cytotoxicity experiment. HeLa cells were seeded in 48-well tissue culture plates at 3×10^4 to 6×10^4 cell/mL and grown overnight in DMEM with 10% fetal bovine serum (HyClone). Cells were treated with MMS or as a combination of MMS with MX or AA3 at indicated concentrations and harvested after 24 h. The viability of the cells was assessed via trypan blue (HyClone) exclusion assay performed using TC20 Automated Cell Counter (Bio-Rad Laboratories).

AP sites in DNA = test: AP site labeling reaction on synthetic oligomer (gel shift, click reaction); assay type: biochemical; details: for product formation: pH 7
Description: A 6-carboxyfluorescein-(6-FAM-) labeled oligonucleotide U-17-mer (5-6-FAM-ATTATTAUCCATTTATT-3′, […]) was used for the AP site labeling reaction. The oligomer (4 pmol) was incubated with E. coli uracil DNA glycosylase (UDG, 1 unit, New England Labs) at 37° C. for 30 min in reaction buffer containing 20 mM Tris-HCl (pH 8.0), 1 mM DTT and 1 mM EDTA to create AP site containing DNA. The alkoxyamine [methoxyamine, MX (Sigma-Aldrich); aldehyde reactive probe, ARP (Dojindo Laboratories) or AA3] was added into the oligomer solution at indicated concentrations, and incubated at 37° C. for another 30 min. In some experiments, the pH of the solution was adjusted with HCl or NaOH solution following removal of uracil and the pH was confirmed using pH paper. Following the reaction of alkoxyamine, unlabeled AP sites were reduced by the addition of NaBH4 (Sigma-Aldrich) to 100 mM and further incubation for 5 min. If this step was omitted, we observed significant degradation of the DNA. The reactions were stopped by the addition of formamide, loading dye and heating to 95° C. for5 min. The DNAs were electrophoresed in 20% polyacrylamide gels containing 7 M urea and scanned using a Typhoon 9210 phosphorimager (GE Healthcare). Product bands in images were quantified using ImageQuant software. In experiments involving competition between alkoxyamines, AP site containing DNA was reacted with the first alkoxyamine at 37° C. for 30 min. This was followed by the addition of the second alkoxyamine and incubation for an additional 30 min. The reactions were stopped and the products were analyzed as described above.
Biotin azide or Cy5 azide (Lumiprobe) was added to a solution of AA3-linked 17-mer to 0.5 mM followed by the addition of a freshly prepared solution of CuBr/TBTA (1:3 in DMSO/t-BuOH 3:1, 0.5 mM, Sigma-Aldrich). The mixture was shaken at 45° C. for 1 h. The DNAs were electrophoresed and analyzed as described above.

| Structure (SMILES) | killing of a B-NHL cell line (cytotoxicity) (B-NHL cell lines [1]) | protection of AP sites against cleavage by APE-1 (APE-1) | cytocidal or cytostatic to B-NHL cells (B-NHL cell lines [2]) | effect on cell growth (B-NHL cell lines [2]) | cell death (B-NHL cell lines [2]) | further results |
| --- | --- | --- | --- | --- | --- | --- |
| C#CCCON [AA5, O-(but-3-yn-1-yl)hydroxylamine] | killed these cells |  |  |  |  | effectiveness in killing relative to AA3 (B-NHL cell lines [1]; a B-NHL cell line): somewhat less effective |
| CCCON [AA4, O-(n-propyl)hydroxylamine] |  |  |  |  |  | killing of a B-NHL cell line (B-NHL cell lines [1]; even at 10 mM, FIG. 17): did not significantly kill the cells |
| CON [MX, methoxyamine] |  | ~100% | cytostatic | temporary pause in cell growth | did not result in cell death | protection of AP sites against APE-1 (APE-1; alkoxyamine reaction at pH 7): protected an overwhelming majority of AP sites; enhancement of killing by MMS (HeLa cells; 10 mM with MMS, six independent cultures): did enhance killing by MMS |
| COS(C)(=O)=O [MMS, Methyl methanesulfonate] |  |  |  |  |  | loss of viability (HeLa cells; MMS alone, 50 µM, after one day): very little loss of viability |
| NOCCC(=O)NNC(=O)CCCC[C@@H]1SC[C@@H]2NC(=O)N[C@@H]21 [ARP, N′-(3-(aminooxy)propanoyl)-5-((3aS,4S,6aR)-2-oxohexahydro-H-thieno[3,4-d]imidazol-4-yl)pentanehydrazide] |  | 74% | cytostatic | temporary pause in cell growth | did not result in cell death | DNA cleaved by APE-1 (APE-1; AP sites reacted with alkoxyamine at pH 7): about 90%; substrate converted to product (AP sites in DNA; 0.2 μM oligomer, 5 mM ARP, pH 7 or 8): < 20%; product formation (AP sites in DNA; 5 mM): 13%; product formation (AP sites in DNA; 10 mM): 20% |
| C=CCON [AA7, O-allylhydroxylamine] | cytotoxic |  |  |  |  |  |
